In patent US20050009924A1 (priority 2003, published 2005):

What was measured:
[1] = test system: human hepatoma G2 cells; assay: Cytotoxicity assay (XTT colorimetric), Hep G2; assay type: cell-based; settings: Homo sapiens, HepG2; 48 h of drug exposure
[2] = test system: rat glioma C6 cells; assay: Cytotoxicity assay (XTT colorimetric), C6 cells; assay type: cell-based; settings: Rattus norvegicus, C6; 48 h of drug exposure
[3] = test system: hepatitis B virus transfected hepatoma cell lines, HepG 2.2.15 cells; assay: Cytotoxicity assay, 2.2.15 cells; assay type: cell-based, human; settings: Homo sapiens, HepG2.2.15; 48 h of drug exposure
[4] = test system: transcriptional activity of hTERT; assay: SEAP reporter assay of hTERT expression, PhTERT-SEAP (hTERT-BJ1); assay type: cell-based, human; settings: PhTERT-SEAP (hTERT-BJ1)
Outline: (§1)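 Cells seeded, grown 24 h at 37° C, refed, then exposed to varying drug amounts for another 24 h. Collected media heated 65° C for 10 min to kill heat-labile phosphatases, mixed with equal SEAP buffer (2 M diethanolamine, 1 mM MgCl2, 20 mM […]) plus 12 mM final p-nitrophenyl phosphate; rate of A405 increase measured.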

[5] = test system: transcriptional activity of hTERT; assay: SEAP reporter assay of hTERT expression, PhTERT-SEAP (H1299); assay type: cell-based, human; settings: PhTERT-SEAP(hTERT-H1299)
Outline: as §1

[6] = MTT relative viability, PhTERT-SEAP (H1299) cells; settings: human
[7] = MTT relative viability, PhTERT-SEAP (hTERT-BJ1) cells; settings: human
[8] = hTERT-BJ1 cells stably transfected with PhTERT-SEAP reporter
[9] = hTERT-BJ1 cells, stable PhTERT-SEAP reporter clone
[10] = Homo sapiens, 2.3 μM, read-out: Relative SEAP activity (%)
[11] = Homo sapiens, 23 μM, read-out: Relative SEAP activity (%)
[12] = Homo sapiens, 238 μM, read-out: Relative SEAP activity (%)
[13] = Homo sapiens, NCI-H1299, 2.3 μM, read-out: Relative SEAP activity (%)
[14] = Homo sapiens, NCI-H1299, 23 μM, read-out: Relative SEAP activity (%)
[15] = Homo sapiens, NCI-H1299, 238 μM, read-out: Relative SEAP activity (%)

O=C(CCl)Nc1ccc(NC(=O)CCl)c2c1C(=O)c1ccccc1C2=O [VI1, 1,4-Bis(chloroacetamido)-9,10-anthracenedione]
IC50 [1]: > 20 µM
IC50 [2]: > 20 µM
IC50 [3]: > 20 µM
SEAP/vibility ([4]; 2.5 μM): 1.23
SEAP/vibility ([4]; 25 μM): 1.53
SEAP/vibility ([4]; 255 μM): 2.76
activity at 2.5 µM ([4]; Homo sapiens, 2.5 μM, read-out: Relative SEAP activity (%)): 123 ± 16.8%
activity at 25 µM ([4]; Homo sapiens, 25 μM, read-out: Relative SEAP activity (%)): 129 ± 17.7%
activity at 255 µM ([4]; Homo sapiens, 255 μM, read-out: Relative SEAP activity (%)): 121 ± 10.9%
SEAP/vibility ([5]; 2.5 μM): 0.98
SEAP/vibility ([5]; 25 μM): 1.14
SEAP/vibility ([5]; 255 μM): 4.66
activity at 2.5 µM ([5]; Homo sapiens, NCI-H1299, 2.5 μM, read-out: Relative SEAP activity (%)): 102 ± 5.3%
activity at 25 µM ([5]; Homo sapiens, NCI-H1299, 25 μM, read-out: Relative SEAP activity (%)): 110 ± 8.8%
activity at 255 µM ([5]; Homo sapiens, NCI-H1299, 255 μM, read-out: Relative SEAP activity (%)): 97 ± 7.1%
melting point: 285 to 287 °C
viability at 48 h, 2.5 µM [6]: 104 ± 5.5%
viability at 48 h, 25 µM [6]: 96 ± 3.8%
viability at 48 h, 255 µM [6]: 21 ± 1.5%
viability at 48 h, 2.5 µM [7, 8]: 101 ± 2.7%
viability at 48 h, 25 µM [7, 8]: 84 ± 6.3%
viability at 48 h, 255 µM [7, 9]: 44 ± 4.7%

O=C(CCCl)Nc1ccc(NC(=O)CCCl)c2c1C(=O)c1ccccc1C2=O [VI7, 1,4-Bis(3-chloropropionamido)-9,10-anthracenedione]
IC50 [1]: > 20 µM
IC50 [2]: > 20 µM
IC50 [3]: > 20 µM
SEAP/vibility ([4]; 2.3 μM): 0.36
SEAP/vibility ([4]; 23 μM): 0.48
SEAP/vibility ([4]; 238 μM): 0.23
activity at 2.3 µM [4, 10]: 36 ± 12.1%
activity at 23 µM [4, 11]: 40 ± 10.8%
activity at 238 µM [4, 12]: 14 ± 11.8%
SEAP/vibility ([5]; 2.3 μM): 0.88
SEAP/vibility ([5]; 23 μM): 1.28
SEAP/vibility ([5]; 238 μM): 2.30
activity at 2.3 µM [5, 13]: 87 ± 2.3%
activity at 23 µM [5, 14]: 87 ± 3.1%
activity at 238 µM [5, 15]: 68 ± 5.3%
melting point: 230 to 231 °C
viability at 48 h, 2.3 µM [6]: 99 ± 6%
viability at 48 h, 23 µM [6]: 68 ± 2.4%
viability at 48 h, 238 µM [6]: 30 ± 3.8%
viability at 48 h, 2.3 µM [7, 9]: 102 ± 4.1%
viability at 48 h, 23 µM [7, 9]: 82 ± 8.2%
viability at 48 h, 238 µM [7, 9]: 60 ± 2.5%

CC(Cl)C(=O)Nc1ccc(NC(=O)C(C)Cl)c2c1C(=O)c1ccccc1C2=O (centres unmarked) [VI9, 1,4-Bis(2-chloropropionamido)-9,10-anthracenedione]
IC50 [1]: > 20 µM
IC50 [2]: > 20 µM
IC50 [3]: > 20 µM
SEAP/vibility ([4]; 2.3 μM): 0.97
SEAP/vibility ([4]; 23 μM): 1.49
SEAP/vibility ([4]; 238 μM): 1.68
activity at 2.3 µM [4, 10]: 91 ± 10.8%
activity at 23 µM [4, 11]: 101 ± 8.4%
activity at 238 µM [4, 12]: 81 ± 8.5%
SEAP/vibility ([5]; 2.3 μM): 0.96
SEAP/vibility ([5]; 23 μM): 1.40
SEAP/vibility ([5]; 238 μM): 7.82
activity at 2.3 µM [5, 13]: 106 ± 5.5%
activity at 23 µM [5, 14]: 109 ± 1%
activity at 238 µM [5, 15]: 85 ± 5.3%
melting point: 233 to 235 °C
viability at 48 h, 2.3 µM [6]: 111 ± 5.5%
viability at 48 h, 23 µM [6]: 77 ± 3.4%
viability at 48 h, 238 µM [6]: 11 ± 1.4%
viability at 48 h, 2.3 µM [7, 9]: 94 ± 10.4%
viability at 48 h, 23 µM [7, 9]: 68 ± 8.2%
viability at 48 h, 238 µM [7, 9]: 48 ± 2.3%

O=C1c2ccccc2C(=O)c2c(NC(=O)C3CCCCC3)ccc(NC(=O)C3CCCCC3)c21 [VI17, 1,4-Bis(cyclohexaneamido)-9,10-anthracenedione]
IC50 [1]: > 20 µM
IC50 [2]: > 20 µM
IC50 [3]: > 20 µM
SEAP/vibility ([4]; 2.1 μM): 0.64
SEAP/vibility ([4]; 21 μM): 0.44
SEAP/vibility ([4]; 218 μM): 0.68
activity at 2.1 µM ([4]; Homo sapiens, 2.1 μM, read-out: Relative SEAP activity (%)): 65 ± 16%
activity at 21 µM ([4]; Homo sapiens, 21 μM, read-out: Relative SEAP activity (%)): 42 ± 24.3%
activity at 218 µM ([4]; Homo sapiens, 218 μM, read-out: Relative SEAP activity (%)): 56 ± 16.3%
SEAP/vibility ([5]; 2.1 μM): 1.00
SEAP/vibility ([5]; 21 μM): 1.05
SEAP/vibility ([5]; 218 μM): 1.38
activity at 2.1 µM ([5]; Homo sapiens, NCI-H1299, 2.1 μM, read-out: Relative SEAP activity (%)): 104 ± 1.8%
activity at 21 µM ([5]; Homo sapiens, NCI-H1299, 21 μM, read-out: Relative SEAP activity (%)): 100 ± 6.2%
activity at 218 µM ([5]; Homo sapiens, NCI-H1299, 218 μM, read-out: Relative SEAP activity (%)): 93 ± 2.5%
melting point: 309 to 310 °C
viability at 48 h, 2.1 µM [6]: 104 ± 6.4%
viability at 48 h, 21 µM [6]: 96 ± 5.8%
viability at 48 h, 218 µM [6]: 67 ± 1.5%
viability at 48 h, 218 µM [7, 8]: 83 ± 4.2%
viability at 48 h, 2.1 µM [7, 9]: 102 ± 3%
viability at 48 h, 21 µM [7, 9]: 97 ± 2.4%

O=C(CCC1CCCC1)Nc1ccc(NC(=O)CCC2CCCC2)c2c1C(=O)c1ccccc1C2=O [VI19, 1,4-Bis(3-cyclopentanepropionamido)-9,10-anthracenedione]
IC50 [1]: > 20 µM
IC50 [2]: > 20 µM
IC50 [3]: > 20 µM
SEAP/vibility ([4]; 2.0 μM): 0.84
SEAP/vibility ([4]; 20 μM): 0.87
SEAP/vibility ([4]; 205 μM): 0.87
activity at 2 µM ([4]; Homo sapiens, 2.0 μM, read-out: Relative SEAP activity (%)): 90 ± 9.2%
activity at 20 µM ([4]; Homo sapiens, 20 μM, read-out: Relative SEAP activity (%)): 87 ± 5.5%
activity at 205 µM ([4]; Homo sapiens, 205 μM, read-out: Relative SEAP activity (%)): 87 ± 8%
SEAP/vibility ([5]; 2.0 μM): 1.06
SEAP/vibility ([5]; 20 μM): 1.09
SEAP/vibility ([5]; 205 μM): 1.15
activity at 2 µM ([5]; Homo sapiens, NCI-H1299, 2.0 μM, read-out: Relative SEAP activity (%)): 111 ± 9.4%
activity at 20 µM ([5]; Homo sapiens, NCI-H1299, 20 μM, read-out: Relative SEAP activity (%)): 116 ± 8%
activity at 205 µM ([5]; Homo sapiens, NCI-H1299, 205 μM, read-out: Relative SEAP activity (%)): 109 ± 9.2%
melting point: 166 to 167 °C
viability at 48 h, 2 µM [6]: 105 ± 2.1%
viability at 48 h, 20 µM [6]: 106 ± 4.7%
viability at 48 h, 205 µM [6]: 95 ± 1.3%
viability at 48 h, 205 µM [7, 8]: 100 ± 5.8%
viability at 48 h, 2 µM [7, 9]: 107 ± 3.6%
viability at 48 h, 20 µM [7, 9]: 101 ± 4.7%
